Data reported in patent EP1820502A1, “Active substance combination comprising azolylcarbinol compounds” (LABORATORIOS DEL DR. ESTEVE, S.A., priority 2006, dated 2007).

System: mechanical allodynia/hyperalgesia in rats with unilateral ligatures of the sciatic nerve
Test: Randall-Selitto test (pressure thresholds for paw withdrawal and vocalization) in rats with unilateral ligatures of the sciatic nerve
Type: in vivo
Conditions: two weeks after sciatic nerve ligature, cizolirtine 5 mg/kg i.p., gabapentin 30 mg/kg i.p., or both 5 min apart; for pressure thresholds for triggering vocalization (analgesic effect): Figure 2; for pressure thresholds to trigger paw withdrawal (analgesic effect): ipsilateral right hindpaw, Figure 1
Procedure: Ligatures of the right sciatic nerve were made in pentobarbital (50 mg/kg i.p.)-anesthetized rats according to the classical protocol of Bennett and Xie (1988) which is well known by those skilled in the art. Sham operated animals were subjected to the same surgical procedure except that the nerve was not ligated. Prior to surgery and two weeks afterwards, rats were subjected to the Randall-Selitto test to determine the pressure thresholds for triggering withdrawal of the ipsilateral, right hindpaw and vocalization. Animals were then immediately injected with either cizolirtine (5 mg/kg i.p.), gabapentin (30 mg/kg i.p.) or both drugs. In the latter case, a 5 min interval elapsed between the injection of cizolirtine (1st) and that of gabapentin (2nd). Time 0 on the abscissa (see Figs 1 & 2) corresponded to the second injection. The Randall-Selitto test was then applied for the determination of pressure thresholds at various times up to at least 5 hours thereafter.

| Compound | pressure thresholds for triggering vocalization (analgesic effect) | pressure thresholds to trigger paw withdrawal (analgesic effect) |
| --- | --- | --- |
| CN(C)CCOC(c1ccccc1)c1ccnn1C (racemic) [Cizolirtine, (±)-N,N-dimethyl-2-((1-methyl-1H-pyrazol-5-yl)(phenyl)methoxy)ethanamine] | decrease the threshold to trigger vocalization | decrease the pressure threshold to trigger paw withdrawal |
| NCC1(CC(=O)O)CCCCC1 [Gabapentin, 1-(aminomethyl) cyclohexaneacetic acid] | decrease the threshold to trigger vocalization | decrease the pressure threshold to trigger paw withdrawal |
